Consider three compounds from patent US10894255B2, “Leukocyte and microparticles fractionation using microfluidics” (Nanyang Technological University, priority 2015, dated 2021).

Type in all cases: cell-based, human
For assay [1], the system named is DFF-purified neutrophils rolling on E-selectin. Description: Microfluidic neutrophil rolling assay on E-selectin-coated microchannel. The following applies: for Neutrophil rolling speed on E-selectin: DFF-sorted neutrophils treated with glucose 30 mM, TNF-α 10 ng/mL or PMA 1 μM, shear 2 dynecm^−2, compared with healthy neutrophils, P<0.005. The text has this:
In another aspect, the present invention also relates to a microfluidic flow channel, wherein its inner wall is coated with E-selectin. Such channel may have a length of at least 0.1 cm. Preferably, the channel has a length of 0.5-2 cm. The width may be at least 200 μm, preferably between 350-500 μm. The channel height may be at least 40 μm, preferably between 45-75 μm and more preferably the height is 60 μm. An example to determine the rolling speed by using an E-selectin coated channel is given below. Briefly, a straight microchannel (1 cm length by 400 μm width by 60 μm height) can be coated with E-selectin (50 μg/mL, Peprotech) for 1 h at 4° C. and blocked with 0.5% BSA in PBS for 30 min at room temperature. After blocking, the channel can be connected to a syringe loaded with 0.1% BSA in PBS to prime and wash away excess E-selectin in the channel. For rolling assay, CaCl2 (20 μM, Sigma-Aldrich) can be added to the DFF-purified neutrophils to facilitate the calcium-dependent interactions of neutrophil binding and rolling on E-selectin. ˜10-20 μL of DFF-purified neutrophils (˜10^6 cells/mL) can be loaded at the inlet reservoir and the syringe can be set to withdraw at 2.6 μL/min (˜2 dynecm^−2) to initiate neutrophil rolling. Phase contrast image can be captured for 30 s at the centre of the microchannel every 0.5 s interval (total of 61 frames) at 20× magnification using MetaMorph software (Molecular Devices). […] The neutrophils can then be washed at 1000×g for 4 min and resuspended to a concentration of ˜10^6 cells/mL with 20 μM CaCl2 for rolling assay.
To study neutrophil rolling phenotype on E-selectin, a straight microchannel (1 cm (l)×400 μm (w)×60 μm (h)) with recombinant human E-selectin (50 μg/mL) was coated to simulate flow conditions in post capillary venules (˜1-10 dynecm^−2). DFF-sorted neutrophils were pumped into the channel at physiological shear conditions (2 dynecm^−2) and timelapse imaging was used to capture neutrophil rolling. A MATLAB tracking algorithm was developed to track neutrophil rolling trajectories and speed measurement for high throughput single cell analysis. […] These differences in rolling phenotypes were further investigated by measuring neutrophil PSGL-1 expression, which is known to mediate leukocyte rolling on E-selectin, as well as CD11b, a Mac-1 integrin expressed on leukocytes that supports adhesion to E-selectin.
After having established that neutrophils from T2DM patients rolled faster on E-selectin as compared to healthy subjects, it was determined if these functional differences can be associated to clinical conditions by analyzing rolling speed frequencies in T2DM patients that are higher than the average rolling speed of healthy subjects (≥5 μm/sec). […]

The subject of assay [2] is PSGL-1 expression on neutrophils. Description: Flow cytometric analysis of PSGL-1 expression on healthy and treated neutrophils. The note with it: glucose 30 mM, TNF-α 10 ng/mL or PMA 1 μM treated vs healthy neutrophils; flow cytometry. How it is done: (§1) (A) Image overlay (60× magnification) from captured cell rolling videos highlight distinct differences in rolling trajectories between healthy and TNF-α-treated neutrophils. (B) Cumulative frequency curves of neutrophil rolling speed for healthy, glucose-treated (30 mM), TNF-α-treated (10 ng/mL) and PMA-treated (1 μM) neutrophils. […] Flow cytometric analysis of (C) PSGL-1 and (D) CD11b expression on healthy and treated neutrophils. Cells were incubated with mouse APC anti-human PSGL-1 IgG2a/mouse APC IgG2a isotype and FITC mouse anti-human CD11b (activated) IgG1/FITC mouse IgG1 isotype.
(§2) To study neutrophil rolling phenotype on E-selectin, a straight microchannel (1 cm (l)×400 μm (w)×60 μm (h)) with recombinant human E-selectin (50 μg/mL) was coated to simulate flow conditions in post capillary venules (˜1-10 dynecm^−2). DFF-sorted neutrophils were pumped into the channel at physiological shear conditions (2 dynecm^−2) and timelapse imaging was used to capture neutrophil rolling. A MATLAB tracking algorithm was developed to track neutrophil rolling trajectories and speed measurement for high throughput single cell analysis. […]
In general terms: In flow cytometry, cells or beads pass a laser one at a time.

Assay [3] concerns CD11b expression on neutrophils. Briefly: Flow cytometric analysis of CD11b expression on healthy and treated neutrophils. The note with it: glucose 30 mM, TNF-α 10 ng/mL or PMA 1 μM treated vs healthy neutrophils; flow cytometry. How it is done:
as §1, §2

As to tumor necrosis factor alpha [TNF-α], the “Neutrophil rolling speed on E-selectin” value in assay [1] is “higher than healthy neutrophils”. In addition, in assay [1] (TNF-α-activated neutrophils vs healthy neutrophils (steady rolling in a straight path)), the “Neutrophil rolling trajectories on E-selectin” value is on record as “discontinuous with “flipping” motions”. Also, in assay [2], the “PSGL-1 expression on neutrophils” value was “decreased”.

Consider `CCCCCCCCCCCCCC(=O)O[C@@H]1[C@@H](C)[C@@]2(O)[C@@H](C=C(CO)C[C@]3(O)C(=O)C(C)=C[C@@H]23)[C@@H]2C(C)(C)[C@]12OC(C)=O` [PMA], for which the “Neutrophil rolling speed on E-selectin” value in assay [1] is “did not roll, but instead adhered firmly on E-selectin”. Moreover, the “PSGL-1 expression on neutrophils” value in assay [2] was “downregulation was more significant”. Moreover, the “Neutrophil CD11b level” value in assay [3] is recorded as “higher increase”.

As for `CN(C)C(=N)N=C(N)N` [metformin], in assay [1] (DFF-purified neutrophils of healthy subjects incubated with metformin 1 mM or pravastatin 20 μM for 1 h, vs untreated controls, all paired observations, P<0.05), the “Average rolling speed of drug-treated neutrophils” value was “higher than controls”.
